The structures appear in SMILES notation.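 Values below derive from 48-hour exposures of cells grown in 96-well plates, with endpoints linearly interpolated between the two concentrations bracketing the appropriate inhibition level. GI50: concentration for 50% inhibition of growth.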 The source made the active and inactive calls. Cut-off read from the data, not from the text of the source: active = GI50 up to about 1.1 µM and inactive = higher.

Among the test systems are LXFL 529; M14; RPMI-8226; SF-268; UACC-62; OVCAR-8; U-251; HCT-15; OVCAR-4; K562; NCI-H460; COLO 205; HOP-62; OVCAR-5; 786-0; LOX IMVI; BT-549; NCI/ADR-RES; Hs-578T; DU-145.
What all share (test): NCI tumour cell line growth inhibition, 48 h

For `Nn1c(-c2ccccc2Cl)nc2ccccc2c1=O`, the GI50 with LXFL 529, in the assay on M14, in the assay on RPMI-8226, in the assay with SF-268, in the assay with UACC-62 and in the assay on OVCAR-8 was > 100 µM (inactive) throughout. Also, the GI50 is > 100 µM (inactive) in the assay with U-251; > 100 µM in the assay with HCT-15; > 100 µM (inactive) in the assay on OVCAR-4; > 100 µM (inactive) with K562; > 100 µM (inactive) with NCI-H460; > 100 µM (inactive) in the assay with COLO 205. In addition, the GI50 with HOP-62, in the assay with OVCAR-5 and in the assay with 786-0 was > 100 µM (inactive) in each case.
`Cc1nc(-c2ccccc2)cc2c1c(=O)oc1ccccc12`: the GI50 was > 100 µM (inactive) in the assay on LXFL 529; > 100 µM (inactive) with M14; > 100 µM (inactive) in the assay with RPMI-8226; > 100 µM (inactive) with SF-268; 46.8 µM (inactive) in the assay on UACC-62; > 100 µM (inactive) in the assay on OVCAR-8. Also, the GI50 with U-251 is > 100 µM (inactive); with HCT-15, > 100 µM; with OVCAR-4, > 100 µM (inactive); with K562, > 100 µM (inactive); in the assay with NCI-H460 it was > 100 µM (inactive); in the assay on COLO 205, > 100 µM (inactive). Moreover, the GI50 in the assay with HOP-62, in the assay with OVCAR-5 and in the assay on 786-0 was > 100 µM (inactive) throughout.
`CCN(CC)CCOC(c1ccccc1)c1ccccc1.CCOC(=O)Nc1ccc(S(=O)(=O)OC)cc1.CCOC(=O)Nc1ccc(S(=O)(=O)OC)cc1.Nc1ccc(C(=O)O)c(O)c1`: the GI50 in the assay with LXFL 529, with M14, in the assay on SF-268, with UACC-62, with OVCAR-8 and in the assay with U-251 was > 100 µM (inactive) in each case. In addition, the GI50 in the assay on HCT-15 was > 100 µM; with OVCAR-4, > 100 µM (inactive); with K562 it was > 100 µM (inactive); in the assay on NCI-H460, > 100 µM (inactive); with COLO 205 it was > 100 µM (inactive); with HOP-62, > 100 µM (inactive). In addition, the GI50 in the assay with OVCAR-5, in the assay on 786-0 and in the assay on LOX IMVI was > 100 µM (inactive) each time.
On to `CC1(C)[C@@H]2C[C@H]1C(Cc1cccc(C[C@H]3c4cc(-c5ccccn5)ncc4[C@H]4C[C@@H]3C4(C)C)c1)c1cc(-c3ccccn3)ncc12` (stereo partly specified), for which the GI50 in the assay on BT-549 was 5.06 µM (inactive); with NCI/ADR-RES, 4.06 µM (inactive); in the assay with M14, 0.485 µM (active); in the assay on RPMI-8226 it was 1.39 µM (inactive); in the assay with SF-268, 0.513 µM (active); in the assay on UACC-62 it was 0.499 µM (active). For the same compound, the GI50 in the assay on Hs-578T is > 100 µM (inactive); with OVCAR-8, 0.478 µM (active); with U-251 it was 0.514 µM (active); with HCT-15, 1.09 µM; in the assay with DU-145, 0.993 µM (active); in the assay on OVCAR-4 it was 4.58 µM (inactive). Further, the GI50 in the assay with K562 is 0.435 µM (active); with NCI-H460, 0.689 µM (active); with COLO 205 it was 0.452 µM (active); in the assay with HOP-62, 1.28 µM (inactive); with OVCAR-5, 1.12 µM (active); with 786-0 it was 0.32 µM (active). In the assay on LOX IMVI, the GI50 was 0.556 µM (active).
Consider `CN(C)CCCN1c2ccccc2CCc2cccc([N+](=O)[O-])c21`, for which the GI50 with BT-549 is 25.9 µM (inactive); in the assay on NCI/ADR-RES, 16.5 µM (inactive); in the assay on M14, 15.7 µM (inactive); with RPMI-8226, 11.1 µM (inactive); in the assay on SF-268, 23.5 µM (inactive); in the assay on UACC-62, 18.5 µM (inactive). Further, the GI50 is 23.3 µM (inactive) in the assay on Hs-578T; 15.9 µM (inactive) with OVCAR-8; 18.2 µM (inactive) with U-251; 15.6 µM in the assay on HCT-15; 17.4 µM (inactive) with DU-145; 18 µM (inactive) with OVCAR-4. For the same compound, the GI50 in the assay on K562 was 15.1 µM (inactive); in the assay on NCI-H460 it was 18.2 µM (inactive); in the assay on COLO 205 it was 17.8 µM (inactive); in the assay with HOP-62, 16.5 µM (inactive); in the assay on OVCAR-5 it was 28.8 µM (inactive); with 786-0, 15.3 µM (inactive). Further, in the assay with LOX IMVI, the GI50 was 16.6 µM (inactive).
For `Cc1nc(C(=O)O)c2ccccc2n1`, the GI50 with LXFL 529, in the assay on RPMI-8226, in the assay with SF-268, with UACC-62, in the assay with OVCAR-8 and with U-251 was > 100 µM (inactive) throughout. Further, the GI50 in the assay with K562, with NCI-H460, in the assay with COLO 205, with OVCAR-5 and in the assay on 786-0 was > 100 µM (inactive) throughout.
Consider `CCc1nc(N)nc(N)c1-c1ccc([N+](C)(C)C)cc1`, for which the GI50 with BT-549, in the assay with NCI/ADR-RES, in the assay with M14, in the assay with RPMI-8226, in the assay on SF-268 and in the assay with UACC-62 was > 100 µM (inactive) throughout. For the same compound, the GI50 was > 100 µM (inactive) in the assay with Hs-578T; > 100 µM (inactive) with OVCAR-8; > 100 µM (inactive) with U-251; > 100 µM in the assay on HCT-15; > 100 µM (inactive) with DU-145; > 100 µM (inactive) in the assay on OVCAR-4. The GI50 with K562 is > 83.4 µM (inactive); with NCI-H460, > 90.2 µM (inactive); in the assay on COLO 205, > 100 µM (inactive); in the assay on HOP-62 it was > 100 µM (inactive); in the assay on OVCAR-5, > 100 µM (inactive); in the assay on 786-0, > 100 µM (inactive). Also, the GI50 in the assay on LOX IMVI was > 100 µM (inactive).
As to `CC/C=C/c1cc2c(c3[nH]ccc13)[C@@H](C)CC2C.CC/C=C/c1cc2cc[nH]c2c2c1C(C)C[C@@H]2C.CCc1cc2c(c3[nH]ccc13)[C@@H](C)CC2C` (stereo partly specified), the GI50 in the assay with LXFL 529 is 16.4 µM (inactive); in the assay on M14, 13.5 µM (inactive); in the assay on SF-268 it was 15.5 µM (inactive); in the assay with OVCAR-8, 17.2 µM (inactive); in the assay on U-251, 18 µM (inactive); in the assay on OVCAR-4 it was 15.4 µM (inactive). The GI50 with NCI-H460 was 15.2 µM (inactive); in the assay with COLO 205 it was 20.9 µM (inactive); in the assay on HOP-62 it was 16.3 µM (inactive); in the assay on OVCAR-5 it was 19.9 µM (inactive); with 786-0, 17 µM (inactive); in the assay on LOX IMVI it was 15.6 µM (inactive).
For `CN1C/C(=C\c2cccs2)C2=NC(=S)NC(c3cccs3)C2C1` (stereo unspecified), the GI50 in the assay with BT-549 is 46.1 µM (inactive); in the assay with NCI/ADR-RES, 44.4 µM (inactive); in the assay with M14 it was 55.2 µM (inactive); with RPMI-8226, 29.9 µM (inactive); with SF-268, 61.4 µM (inactive); in the assay on UACC-62 it was 81.1 µM (inactive). Also, the GI50 with Hs-578T is > 100 µM (inactive); in the assay with OVCAR-8, 40.7 µM (inactive); in the assay with U-251, > 100 µM (inactive); in the assay on HCT-15, 77.6 µM; in the assay on DU-145, > 100 µM (inactive); in the assay on OVCAR-4, 29.5 µM (inactive). Moreover, the GI50 with K562 was 44.7 µM (inactive); in the assay on NCI-H460 it was 50.6 µM (inactive); in the assay with COLO 205, 31.8 µM (inactive); in the assay on HOP-62, > 100 µM (inactive); in the assay with OVCAR-5 it was > 100 µM (inactive); in the assay with 786-0 it was > 100 µM (inactive). Also, the GI50 in the assay on LOX IMVI is 67.9 µM (inactive).
Consider `Cc1ccc(S(=O)(=O)O)cc1.c1cc2c(c(NC3=NCCN3)c1)CCCC2`, for which the GI50 in the assay on BT-549, with NCI/ADR-RES, in the assay on M14, in the assay with RPMI-8226, with SF-268 and in the assay with UACC-62 was > 100 µM (inactive) in each case. Besides, the GI50 in the assay on Hs-578T was > 100 µM (inactive); in the assay with OVCAR-8, > 100 µM (inactive); with U-251 it was > 100 µM (inactive); in the assay with HCT-15, > 100 µM; in the assay on DU-145, > 100 µM (inactive); with OVCAR-4, > 100 µM (inactive). The GI50 in the assay with K562, with NCI-H460, in the assay on COLO 205, in the assay on HOP-62, with OVCAR-5 and with 786-0 was > 100 µM (inactive) in each case. Also, in the assay with LOX IMVI, the GI50 was > 100 µM (inactive).
On to `c1ccc(CNCCCCNCCCNCc2ccccc2)cc1`, for which the GI50 was 16.3 µM (inactive) in the assay on BT-549; > 100 µM (inactive) in the assay on NCI/ADR-RES; 29.1 µM (inactive) in the assay on M14; 27.7 µM (inactive) in the assay on RPMI-8226; 18.8 µM (inactive) in the assay on SF-268; 16.6 µM (inactive) in the assay on UACC-62. The GI50 is 14 µM (inactive) in the assay on Hs-578T; > 10 µM (inactive) with OVCAR-8; 17.8 µM (inactive) in the assay with U-251; 19 µM with HCT-15; 23.6 µM (inactive) with DU-145; 17.8 µM (inactive) in the assay with OVCAR-4. The GI50 with K562 was 18 µM (inactive); with NCI-H460 it was 15.3 µM (inactive); with COLO 205, 13.6 µM (inactive); in the assay with HOP-62, 22.2 µM (inactive); with OVCAR-5 it was 30.2 µM (inactive); in the assay on 786-0, 17.2 µM (inactive). For the same compound, the GI50 in the assay on LOX IMVI was 17.7 µM (inactive).
As to `O=C(O)CCCc1ccc2c(c1)C(C(=O)O)CC2` (stereo unspecified), the GI50 in the assay on BT-549 was 76 µM (inactive); with NCI/ADR-RES it was > 100 µM (inactive); with M14, > 100 µM (inactive); in the assay on RPMI-8226, > 100 µM (inactive); in the assay on SF-268, > 100 µM (inactive); in the assay with UACC-62, > 100 µM (inactive). For the same compound, the GI50 in the assay with Hs-578T was > 100 µM (inactive); in the assay on OVCAR-8, > 100 µM (inactive); in the assay with U-251 it was > 100 µM (inactive); in the assay with HCT-15, > 100 µM; in the assay on DU-145 it was > 100 µM (inactive); in the assay with OVCAR-4, > 100 µM (inactive). Further, the GI50 with K562, in the assay with NCI-H460, with COLO 205, with HOP-62, in the assay on OVCAR-5 and with 786-0 was > 100 µM (inactive) throughout. In the assay with LOX IMVI, the GI50 is > 100 µM (inactive).

The record behind these values is ChEMBL document CHEMBL1201862, “PubChem BioAssay data set” (2004).
